# Test results as given in ChEMBL document CHEMBL2440081 (Bioorg Med Chem, 2013).
# Target: Carbonic anhydrase 13 (Homo sapiens, UniProt Q8N1Q1)
# Sequence (Q8N1Q1 whole entry): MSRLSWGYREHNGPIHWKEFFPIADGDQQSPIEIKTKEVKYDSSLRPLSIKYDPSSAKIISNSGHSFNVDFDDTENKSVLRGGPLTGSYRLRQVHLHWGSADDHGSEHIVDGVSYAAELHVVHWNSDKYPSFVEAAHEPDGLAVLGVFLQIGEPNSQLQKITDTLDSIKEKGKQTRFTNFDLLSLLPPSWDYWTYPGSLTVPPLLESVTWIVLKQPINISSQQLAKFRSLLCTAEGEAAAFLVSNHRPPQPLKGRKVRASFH
# Description: Inhibition of human carbonic anhydrase13 preincubated for 15 mins by stopped-flow CO2 hydration assay
compound,measurement,value
CCN[C@H]1CN(CCCOC)S(=O)(=O)c2sc(S(N)(=O)=O)cc21 [BRINZOLAMIDE],Ki,11 nM
